Test [1] deals with immunologically stimulated human basophils. The test can be described thus: Inhibition of histamine release from immunologically stimulated human basophils. In kind it is cell-based. The settings on record: Leukocyte, 1 h; human leukocytes challenged with anti-IgE or antigen, 60 minutes at 37° C.; linear regression; read-out: ED50 (the concentration in μM which causes a 50% inhibition of histamine release). The procedure:
The novel compounds of this invention have been tested by the procedure of Lichtenstein, L. M. and Osler, A. G., J. Exp. Med., 120, 507-530 (1964), which evaluates the ability of compounds to inhibit mediator (histamine) release from immunologically stimulated human basophils.
Eighty milliliters of blood is withdrawn from subjects with known histamine release to anti-IgE, ragweed antigen or other specific allergen, using four 20 ml heparinized tubes. This 80 ml of blood is mixed with 20 ml of saline containing 0.6 g of dextrose and 1.2 g of dextran. The blood is allowed to sediment at room temperature in two 50 ml polycarbonate centrifuge tubes until a sharp interface develops between the red cells and plasma (60-90 minutes). The plasma (top) layer from each tube is withdrawn by pipet and transferred to respective 50 ml polycarbonate tubes. The plasma is centrifuged for 8 minutes at 110X g at 4° C. The supernatant is carefully poured off as completely as possible and the cell button is resuspended in 2-3 ml of Tris-A buffer using a siliconized Pasteur pipet. The resuspension is accomplished by drawing the liquid gently in and out of the pipet, with the tip below the liquid, until an even suspension of cells is obtained. Sufficient Tris-A buffer is then added to bring the volume in the tube to about 45 ml and the tube is centrifuged at 110X g for 8 minutes at 4° C. The supernatant is poured off and the cell button is resuspended and centrifuged as described above. The supernatant is poured off and the cell button is suspended in 2-3 ml of Tris-ACM buffer to make the final volume sufficient to allow addition to the reaction tubes.
Reaction tubes containing anti-IgE or antigens, either alone or with test compound in a total volume of 0.2 ml are prepared and placed in a 37° C. bath. The cells are warmed to 37° C. and frequently swirled to ensure an even suspension, while 1.0 ml aliquots are added to each reaction tube. The tubes are then incubated for 60 minutes at 37° C., vortexing the tubes gently every 15 minutes to keep the cells evenly suspended. When the reaction is complete, the tubes are centrifuged at 4° C. for 10 minutes at 1500 rpm to sediment the cells. One ml aliquots of supernatant are transferred to 12X 75 mm polyethylene tubes and 0.2 ml of 8% perchloric acid is added to each tube. Blanks and totals are included in each test. The blanks have cells and all reagents except antigen or anti-IgE. The totals contain 0.24 ml of 8% perchloric acid, one ml of cells and 0.2 ml of buffer. All samples are then centrifuged to remove the precipitate protein.
This automated method has been described by Siraganian, R. P., in Anal. Biochem., 57, 383 (1974) and J. Immunol. Methods, 7, 283 (1975) and is based on the manual method of Shore, P. A., et al., J. Pharmacol. Exp. Ther., 217, 182 (1959).
The automated system consists of the following Technicon Autoanalyzer II components: Sampler IV, Dual-Speed Proportioning Pump III, Fluoronephelometer with a narrow pass primary filter 7-60 and a secondary filter 3-74, Recorder, and Digital Printer. The manifold used is the one described by Siraganian vide supra, with the following modifications: the dialyzer is omitted; all pumping tubes pass through a single proportioning pump with large capacity and twice the volume of sample is taken for analysis.
The automated chemistry consists of the following steps: Extraction from alkaline saline into butanol, back extraction into dilute hydrochloric acid by addition of heptane, reaction of histamine with o-phthaldialdehyde(OPT) at high pH and conversion of the OPT adduct to a stable fluorophore with phosphoric acid. The reaction product is then passed through the fluorometer. The full scale response is adjusted to 50 ng histamine base with a threshold sensitivity of approximately 0.5 ng.
The instrument blank (wash) is subtracted from the ng histamine of each sample. […]

Test [2] deals with female Hartley-strain guinea pigs. The experiment in a line: Passive Anaphylaxis Test. The test is classed as in vivo, guinea pig. Details: key: If the Fisher test is significant, the compound is considered active; If the rank sum test is significant, the compound is considered to have weak activity. The following applies: oral, one hour before ovalbumin challenge; standard dose 50 mg/kg; ten animals. The procedure: At -48 hours (relative to antigen challenge at time 0), 2 ml of saline containing 0.2-0.05 IgG hyperimmune serum (depending on batch of antibody used) was injected intraperitoneally (i.p.) into 250-300 g female Hartley-strain guinea pigs. One hour before challenge, the test compound is given to ten animals orally at 4 ml/kg of a suspension in 0.5% carboxymethylcellulose. The standard dose is 50 mg/kg. Ten control animals receive the vehicle only. The challenge consists of an intravenous injection of 0.25-2.0 mg of ovalbumin in one ml of saline. The time to the first observable symptom of anaphylaxis (normally this is a scratching of the nose) and the time to loss of righting reflex are recorded for each animal. Thirty minutes after the challenge the numbers of deceased and living animals are also recorded.
The treated and control groups are compared by a Mann-Whitney rank sum test for the times to symptom and times to collapse. In addition, a Fisher's exact test is done on the number of collapsed vs. noncollapsed for control and treated groups. If the Fisher test is significant, the compound is considered active. If the rank sum test is significant, the compound is considered to have weak activity.

SMILES strings stand for the structures.

Turning to `CC(=O)Nc1nc2c(C)cnc(-c3cccc([N+](=O)[O-])c3)n2n1` [N-[8-Methyl-5-(3-nitrophenyl)[1,2,4]triazolo[1,5-c]pyrimidin-2-yl]acetamide], in test [1], the IC50 amounted to 11 µM.
`Nc1nc2ccnc(-c3cccc(C(F)(F)F)c3)n2n1` [5-[3-(trifluoromethyl)phenyl][1,2,4]triazolo[1,5-c]pyrimidin-2-amine]: the IC50 in test [1] came out at 2.7 µM.
On to `Nc1nc2ccnc(-c3cccc(Br)c3)n2n1` [5-(3-bromophenyl)[1,2,4]triazolo[1,5-c]pyrimidin-2-amine], for which the IC50 in test [1] worked out at 3.3 µM.
Turning to `Cc1cccc(-c2nccc3nc(N)nn23)c1` [5-(3-Methylphenyl)[1,2,4]triazolo[1,5-c]pyrimidin-2-amine], in test [1], the IC50 amounted to 7.8 µM.
On the same count and under the same terms, in the case of `CN(C)C(=O)c1cccc(-c2nccc3nc(N)nn23)c1` [3-(2-Amino[1,2,4]triazolo[1,5-c]pyrimidin-5-yl)-N,N--dimethylbenzamide] it was 11 µM.
For the compound `Nc1nc2ccnc(-c3cccc([N+](=O)[O-])c3)n2n1` [5-(3-nitrophenyl)[1,2,4]triazolo[1,5-c]pyrimidin-2-amine], the IC50 in test [1] amounted to 3.8 µM.
Regarding `Cc1ccc(S(=O)(=O)Nc2cccc(-c3nccc4nc(N)nn34)c2)cc1` [N-[3-(2-Amino[1,2,4]triazolo[1,5-c]pyrimidin-5yl)phenyl]-4-methylbenzenesulfonamide], the IC50 in test [1] stood at 1.5 µM.
For `Nc1nc2ccnc(-c3cccnc3)n2n1` [5-(3-pyridinyl)[1,2,4]triazolo[1,5-c]pyrimidin-2-amine], the IC50 in test [1] was found to be 49.4 µM.
Same read-out and setting: in the case of `Cc1cc2nc(N)nn2c(-c2cccc(C(F)(F)F)c2)n1` [7-methyl-5-[3-(trifluoromethyl)phenyl][1,2,4]triazolo[1,5-c]pyrimidin-2-amine] it was 100 µM; in that of `Nc1nc2ccnc(-c3cccc(OC(F)F)c3)n2n1` [5-[3-(difluoromethoxy)phenyl][1,2,4]triazolo[1,5-c]pyrimidin-2-amine], 3 µM.
Same read-out and setting: under `C#Cc1cccc(-c2nccc3nc(N)nn23)c1` [5-(3-Ethynylphenyl)[1,2,4]triazolo[1,5-c]pyrimidin-2-amine] stands 14 µM; under `Cc1cnc(-c2cccc(C(F)(F)F)c2)n2nc(N)nc12` [8-Methyl-5-[3-(trifluoromethyl)phenyl][1,2,4]triazolo[1,5-c]pyrimidin-2-amine], 5.6 µM.
Consider `Cc1cnc(-c2cccc([N+](=O)[O-])c2)n2nc(N)nc12` [8-Methyl-5-(3-nitrophenyl)[1,2,4]triazolo[1,5-c]pyrimidin-2-amine], for which, in test [1], the IC50 amounted to 8.7 µM.
Same read-out and setting: in the case of `Nc1nc2ccnc(-c3cccc(Cl)c3)n2n1` [5-(3-chlorophenyl)[1,2,4]triazolo[1,5-c]pyrimidin-2-amine] it was 4.3 µM; in that of `CNc1nc2ccnc(-c3cccc(C(F)(F)F)c3)n2n1` [N-Methyl-5-[3-trifluoromethyl)phenyl][1,2,4]triazolo[1,5-c]pyrimidin-2-amine], 16 µM; in that of `Nc1nc2ccnc(-c3cccc(C=O)c3)n2n1` [3-(2-Amino[1,2,4]triazolo[1,5-c]pyrimidin-5-yl)benzaldehyde], 0.8 µM.
As to `OC(CCl)CNc1nc2ccnc(-c3cccc(C(F)(F)F)c3)n2n1` (centres unmarked) [1-Chloro-3-[[5-[3-(trifluoromethyl)phenyl][1,2,4]triazolo[1,5-c]pyrimidin-2-yl]amino]-2-propanol], in test [1], the IC50 was 9.5 µM.
As for `CC(=O)Nc1nc2ccnc(-c3cccc(C(F)(F)F)c3)n2n1`, in test [1], the IC50 came to 20 µM.
Turning to `CC(=O)Nc1nc2c(C)cnc(-c3cccc(NS(=O)(=O)c4ccc(C)cc4)c3)n2n1` [N-[8-Methyl-5-[3-[[4-methylphenyl)sulfonyl]amino]phenyl][1,2,4]triazolo[1,5-c]pyrimidin-2-yl]acetamide], the IC50 in test [1] turned out to be 34.4 µM.
Still for that read-out and setting: under `Nc1nc2ccnc(-c3ccncc3)n2n1` [5-(4-pyridinyl)[1,2,4]triazolo[1,5-c]pyrimidin-2-amine] stands 33 µM.
The same measure, in the same setting: under `Nc1nc2ccnc(-c3cc(C(F)(F)F)cc(C(F)(F)F)c3)n2n1` [5-[3,5-bis(trifluoromethyl)phenyl][1,2,4]triazolo[1,5-c]pyrimidin-2-amine] stands 0.7 µM; under `CCOC(=O)c1ccc(-c2nccc3nc(N)nn23)cc1` [4-(2-amino[1,2,4]triazolo[1,5-c]pyrimidin-5-yl)benzoic acid, ethyl ester], 16 µM.
The same measure, in the same setting: under `CC(=O)Nc1nc2ccnc(-c3cccc(NS(=O)(=O)c4ccc(C)cc4)c3)n2n1` [N-[5-[3-[[(4-Methylphenyl)sulfonyl]amino]phenyl]-[1,2,4]triazolo[1,5-c]pyrimidin-2-yl]acetamide] stands 1.7 µM.
As for `Nc1nc2ccnc(-c3cc[n+]([O-])cc3)n2n1` [5-(4-Pyridinyl)[1,2,4]triazolo[1,5-c]pyrimidin-2-amine, pyridine-1-oxide], in test [1], the IC50 was determined as 4.9 µM.
As for `Nc1nc2ccnc(-c3ccc(F)cc3)n2n1` [5-(4-fluorophenyl)[1,2,4]triazolo[1,5-c]pyrimidin-2-amine], the IC50 in test [1] is 31 µM.
Same read-out and setting: in the case of `Cc1cnccc1-c1nccc2nc(N)nn12` [5-(3-methyl-4-pyridinyl)[1,2,4]triazolo[1,5-c]pyrimidin-2-amine] it was 3.8 µM.
Take `Nc1nc2ccnc(-c3cccc(C(Cl)Cl)c3)n2n1` [5-[3-(dichloromethyl)phenyl][1,2,4]triazolo[1,5-c]pyrimidin-2-amine]: the IC50 in test [1] was 1.2 µM.
Same read-out and setting: under `CCOC(=O)c1cccc(-c2nccc3nc(N)nn23)c1` [3-(2-amino[1,2,4]triazolo[1,5-c]pyrimidin-5-yl)benzoic acid, ethyl ester] stands 11 µM.
Turning to `Nc1nc2ccnc(-c3ccccn3)n2n1` [5-(2-pyridinyl)[1,2,4]triazolo[1,5-c]pyrimidin-2-amine], in test [2], the “activity in passive anaphylaxis test (Fisher's exact test on collapsed vs. noncollapsed)” value is on record as “active”.

The values above are taken from patent publication US4579848A, “5-substituted[1,2,4]triazolo[1,5-c]pyrimidin-2-amines” (American Cyanamid Company, priority 1984, dated 1986).
